Patent US11976056B2, “Substituted alkoxypyridinyl indolsulfonamides” (UCB Pharma GmbH, priority 2018, dated 2024)

How the values were obtained:
[1] = test system: CYP1A2; assay: CYP 450-1A2 induction assay in cryopreserved human hepatocytes; assay type: in vitro ADME; conditions: 10 μM test compound, 72 h, compared to vehicle control
Description: Cryopreserved human hepatocytes from a single donor are seeded on a 96 well collagen coated plate so that the final seeding density is 0.1×10^6 cells/well (final volume per well 0.1 mL). The cells are then incubated in seeding medium at 37° C., 95% humidity, 5% CO2 to allow the cells to attach. After 4 h, the seeding medium is replaced with 0.1 mL of pre warmed serum free Williams E medium containing 100 IU/mL penicillin, 100 μg/mL streptomycin, 10 μg/mL insulin, 2 mM L glutamine and 0.1 μM hydrocortisone.
The next day, cells are dosed with test compound in assay medium (final test compound concentration 10 μM; final DMSO concentration 0.1%). Positive control inducers, omeprazole (50 μM) for CYP1A2, phenobarbital (500 μM) for CYP2B6 and rifampicin (10 μM) for CYP3A4, are incubated alongside the test compound. Negative control wells are included where the test compound is replaced by vehicle solvent (0.1% DMSO in assay medium). Each test compound is dosed in triplicate. The cells are exposed to the solutions for 72 h with fresh solution added every 24 h.
For catalytic activity determination, a solution of the probe substrates, phenacetin (final concentration 25 μM), bupropion (final concentration 100 μM) and midazolam (final concentration 2.5 μM) is prepared in pre warmed assay medium. At the end of the 72 h exposure period, the media is replaced with the cocktail of probe substrates. The hepatocytes are incubated for 30 min. An aliquot is removed at the end of the incubation period and placed into methanol containing internal standard in a 1:2 ratio. The samples are centrifuged at 2500 rpm at 4° C. for 20 min. An aliquot of supernatant is diluted with deionised water and levels of acetaminophen, hydroxybupropion and 1 hydroxymidazolam are quantified using Cyprotex generic LC MS/MS methods.
The hepatocytes are solubilised in 0.1M sodium hydroxide at room temperature and protein content in each well determined using Pierce™ BCA Protein Assay Kit (Thermo Scientific) using bovine serum albumin as a standard.
For catalytic activity determination, the concentration of metabolite formed at each test compound replicate is converted to CYP activity and normalised to protein. The fold change is determined by comparing to the vehicle control wells. The fold change observed at each test compound concentration is expressed as a percentage of the positive control compounds for each P450 isoform.

[2] = target: T1, GPR17 (Homo sapiens, UniProt Q13304); conditions: activating ligands for GPR17; cited from earlier work
Target sequence in this assay (Q13304 whole entry, species assumed): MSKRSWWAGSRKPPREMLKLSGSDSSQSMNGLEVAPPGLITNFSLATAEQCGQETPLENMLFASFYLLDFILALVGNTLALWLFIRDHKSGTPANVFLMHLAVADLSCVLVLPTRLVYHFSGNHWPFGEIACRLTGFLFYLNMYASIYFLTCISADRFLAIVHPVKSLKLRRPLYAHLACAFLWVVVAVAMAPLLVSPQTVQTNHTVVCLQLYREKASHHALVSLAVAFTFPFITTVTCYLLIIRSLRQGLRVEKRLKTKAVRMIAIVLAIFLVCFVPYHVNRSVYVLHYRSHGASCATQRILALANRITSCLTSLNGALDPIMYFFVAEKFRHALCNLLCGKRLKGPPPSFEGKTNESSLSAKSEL

[3] = target: T1, GPR17; assay: cAMP accumulation functional assay (HTRF, Schild analysis vs MDL29,951); assay type: cell-based; design: host or cells: Flp-In T-REx CHO; conditions: CHO hGPR17, Schild analysis against MDL29,951, activity range; read-out: cAMP assay pA2 (converted)
Description: Flp-In T-REx CHO cells stably expressing human GPR17 receptor (CHO hGPR17) from Evi Kostenis' lab (Bonn University, Germany) were cultured at 37° C. in a humidified atmosphere of 5% CO2. Cells were grown in DMEM with Nutrient Mixture F-12 supplemented with hygromycin B (500 μg/ml) and blasticidin (30 μg/ml). Expression from the Flp-In locus was induced by treatment with doxycycline (1 μg/ml) for 16-20 h prior assays.
GPR17 activation can also recruit Gi-type G-protein signaling, resulting in a decrease of intracellular cyclic adenosine monophosphate (cAMP). Intracellular cAMP changes can be measured using the HTRF cAMP dynamic assay kit from CisBio (Codolet, France). Using homogenous time-resolved fluorescence technology (HTRF), the assay is based on competition between native cAMP produced by cells and cAMP labelled with the dye d2. The tracer binding was determined by an anti-cAMP antibody labeled with cryptate.
CHO hGPR17 were detached with PBS containing EDTA and dispatched in black 384-well plates with 5,000 cells per well. Cells were first incubated for 30 minutes at room temperature in HBSS Hepes (pH 7.4) containing vehicle or varying concentrations of test GPR17 antagonist/inverse agonist compounds. Then, a dose response curve of MDL29,951 GPR17 agonist (typically from 10^−5 M to 10^−10 m) was added on vehicle and on each test GPR17 antagonist/inverse agonist compound concentration in a final volume of 20 μL HBSS Hepes buffer (pH 7.4) containing 1% DMSO, 5 μM forskolin and 0.1 mM IBMX. After 60 minutes incubation at room temperature, the reaction is terminated and the cells lysed by adding the d2 detection reagent and the cryptate reagent in 10 μL lysis buffer each according to manufacturer's instructions. After 60 minutes incubation, changes in cAMP concentrations are measured according to manufacturer's instructions using an Envision plate reader with laser excitation. All incubations were performed in duplicate. Data was analyzed using GraphPad Prism software using the 4-parameter logistic equation to measure MDL29,951 pEC50s in absence and presence of GPR17 antagonist/inverse agonist test compounds. Dose ratio (DR) were plotted against antagonist concentrations and Schild analysis provided estimated affinity pA2 of GPR17 antagonist/inverse agonist test compounds.
Target sequence in this assay (Q13304 whole entry): as the sequence (Q13304 whole entry, species assumed) above

Compound	induction of CYP1A2 [1]	Kb [3] [nM]	amounts needed in the assays [2]
NCC(=O)CCC(=O)O [Example 5-ALA, 5 amino levulinic acid]	–	–	three digit micromolar range
O=S(=O)(Nc1ncc(OCC(F)F)cc1F)c1c[nH]c2c(Cl)c(Cl)ccc12 [Example I-6, 6,7-dichloro-N-[5-(2,2-difluoroethoxy)-3-fluoropyridin-2-yl]-1H-indole-3-sulfonamide]	–	3.16 to 31.6	–
O=S(=O)(Nc1ncc(OCCF)cc1F)c1c[nH]c2c(F)c(C(F)F)ccc12 [Example I-8, 6-(difluoromethyl)-7-fluoro-N-[3-fluoro-5-(2-fluoroethoxy)pyridin-2-yl]-1H-indole-3-sulfonamide]	–	> 31.6	–
COc1nc(NS(=O)(=O)c2c[nH]c3c(Cl)c(Cl)ccc23)c(F)cc1OCC(F)F [Example I-13, 6,7-dichloro-N-[5-(2,2-difluoroethoxy)-3-fluoro-6-methoxypyridin-2-yl]-1H-indole-3-sulfonamide]	–	≤ 3.16	–
O=S(=O)(Nc1ncc(OCC(F)F)cc1F)c1c[nH]c2c(C(F)F)c(Cl)ccc12 [Example I-14, 6-chloro-N-[5-(2,2-difluoroethoxy)-3-fluoropyridin-2-yl]-7-(difluoromethyl)-1H-indole-3-sulfonamide]	–	3.16 to 31.6	–
COc1nc(NS(=O)(=O)c2c[nH]c3c(C(F)F)c(Cl)ccc23)c(F)cc1OCC(F)F [Example I-15, 6-chloro-N-[5-(2,2-difluoroethoxy)-3-fluoro-6-methoxypyridin-2-yl]-7-(difluoromethyl)-1H-indole-3-sulfonamide]	–	≤ 3.16	–
COc1cc(OC(F)F)cnc1NS(=O)(=O)c1c[nH]c2c(Cl)c(Cl)ccc12 [Example I-16, 6,7-dichloro-N-[5-(difluoromethoxy)-3-methoxypyridin-2-yl]-1H-indole-3-sulfonamide]	–	≤ 3.16	–
COc1cc(OC(F)F)cnc1NS(=O)(=O)c1c[nH]c2c(C(F)F)c(Cl)ccc12 [Example I-17, 6-chloro-N-[5-(difluoromethoxy)-3-methoxypyridin-2-yl]-7-(difluoromethyl)-1H-indole-3-sulfonamide]	–	3.16 to 31.6	–
O=S(=O)(Nc1ncc(OCC(F)F)cc1F)c1c[nH]c2c(F)c(C(F)F)ccc12 [Example I-19, N-[5-(2,2-difluoroethoxy)-3-fluoropyridin-2-yl]-6-(difluoromethyl)-7-fluoro-1H-indole-3-sulfonamide]	–	> 31.6	–
COc1nc(NS(=O)(=O)c2c[nH]c3c(Cl)c(C(F)F)ccc23)c(F)cc1OCC(F)F [Example I-20, 7-chloro-N-[5-(2,2-difluoroethoxy)-3-fluoro-6-methoxypyridin-2-yl]-6-(difluoromethyl)-1H-indole-3-sulfonamide]	–	≤ 3.16	–
COc1cc(OCC(F)F)cnc1NS(=O)(=O)c1c[nH]c2c(Cl)c(Cl)ccc12 [Example I-21, 6,7-dichloro-N-[5-(2,2-difluoroethoxy)-3-methoxypyridin-2-yl]-1H-indole-3-sulfonamide]	–	3.16 to 31.6	–
NCc1[nH]cc(CCC(=O)O)c1CC(=O)O [PBG, porphobilinogen]	–	–	mM range

More lines, main results first:

induction of CYP1A2 [1]	Kb [3] [nM]	Compound	amounts needed in the assays [2]
16 fold	–	O=S(=O)(Nc1nc(F)c(OCCF)cc1F)c1c[nH]c2cc(Cl)ccc12 [Comparative Example 1, 6-chloro-N-[3,6-difluoro-5-(2-fluoroethoxy)pyridin-2-yl]-1H-indole-3-sulfonamide, reference compound]	–
no CYP1A2 induction	≤ 3.16	O=S(=O)(Nc1nc(F)c(OCCF)cc1F)c1c[nH]c2c(Cl)c(Cl)ccc12 [Example I-1, 6,7-dichloro-N-[3,6-difluoro-5-(2-fluoroethoxy)pyridin-2-yl]-1H-indole-3-sulfonamide]	–
no CYP1A2 induction	≤ 3.16	O=S(=O)(Nc1nc(F)c(OCCF)cc1F)c1c[nH]c2c(OC3CC3)c(Cl)ccc12 [Example I-2, 6-chloro-7-cyclopropyloxy-N-[3,6-difluoro-5-(2-fluoroethoxy)pyridin-2-yl]-1H-indole-3-sulfonamide]	–
no CYP1A2 induction	≤ 3.16	O=S(=O)(Nc1nc(F)c(OCCF)cc1F)c1c[nH]c2c(C(F)F)c(Cl)ccc12 [Example I-3, 6-chloro-N-[3,6-difluoro-5-(2-fluoroethoxy)pyridin-2-yl]-7-(difluoromethyl)-1H-indole-3-sulfonamide]	–
–	3.16 to 31.6	O=S(=O)(Nc1ncc(OCCF)cc1F)c1c[nH]c2c(Cl)c(Cl)ccc12 [Example I-5, 6,7-dichloro-N-[3-fluoro-5-(2-fluoroethoxy)pyridin-2-yl]-1H-indole-3-sulfonamide]	–
–	3.16 to 31.6	O=S(=O)(Nc1ncc(OCCF)cc1F)c1c[nH]c2c(C(F)F)c(Cl)ccc12 [Example I-7, 6-chloro-7-(difluoromethyl)-N-[3-fluoro-5-(2-fluoroethoxy)pyridin-2-yl]-1H-indole-3-sulfonamide]	–
–	≤ 3.16	O=S(=O)(Nc1nc(F)c(OCCF)cc1F)c1c[nH]c2c(F)c(Cl)ccc12 [Example I-10, 6-chloro-N-[3,6-difluoro-5-(2-fluoroethoxy)pyridin-2-yl]-7-fluoro-1H-indole-3-sulfonamide]	–
–	≤ 3.16	O=S(=O)(Nc1nc(F)c(OCC(F)F)cc1F)c1c[nH]c2c(F)c(Cl)ccc12 [Example I-11, 6-chloro-N-[5-(2,2-difluoroethoxy)-3,6-difluoropyridin-2-yl]-7-fluoro-1H-indole-3-sulfonamide]	–
no CYP1A2 induction	3.16 to 31.6	O=S(=O)(Nc1nc(F)c(OCCF)cc1F)c1c[nH]c2c(C3CC3)c(Cl)ccc12 [Example I-12, 6-chloro-7-cyclopropyl-N-[3,6-difluoro-5-(2-fluoroethoxy)pyridin-2-yl]-1H-indole-3-sulfonamide]	–
–	3.16 to 31.6	O=S(=O)(Nc1nc(F)c(OCCF)cc1F)c1c[nH]c2c(OC(F)(F)F)c(Cl)ccc12 [Example I-18, 6-chloro-N-[3,6-difluoro-5-(2-fluoroethoxy)pyridin-2-yI]-7-(trifluoromethoxy)-1H-indole-3-sulfonamide]	–
–	≤ 3.16	COc1nc(NS(=O)(=O)c2c[nH]c3c(F)c(Cl)ccc23)c(F)cc1OCC(F)F [Example I-22, 6-chloro-N-[5-(2,2-difluoroethoxy)-3-fluoro-6-methoxypyridin-2-yl]-7-fluoro-1H-indole-3-sulfonamide]	–
–	≤ 3.16	COc1nc(NS(=O)(=O)c2c[nH]c3c(F)c(Cl)ccc23)c(F)cc1OCCOC(F)F [Example I-23, 6-chloro-N-[5-[2-(difluoromethoxy)ethoxy]-3-fluoro-6-methoxypyridin-2-yl]-7-fluoro-1H-indole-3-sulfonamide]	–
